The source made the active and inactive calls. The rule behind the calls is not given here.
Experiments:
HT-29 [1] = test: Inhibition of LPS-stimulated prostaglandin E2 release in human HT29 cells after 6 hrs by ELISA; assay type: functional, cell-based
Mus musculus [2] = test: Antiinflammatory activity in paraffin oil challenged C3H-FeJ peritonitis mouse model assessed as peritoneal levage macrophage count per 10^5/mL at 2 mg/kg, ip after 3 days; assay type: functional; settings: route intraperitoneal
Mus musculus [3] = test: Effect on TNF-mediated cytotoxicity against C3H-FeJ mouse […] cells at 4 mg/kg, ip after 7 days; assay type: functional; settings: route intraperitoneal
Mus musculus [4] = test: Antiinflammatory activity in paraffin oil challenged C3H-FeJ peritonitis mouse model assessed as peritoneal levage macrophage count per 10^5/mL at 2 mg/kg, ip after 7 days; assay type: functional; settings: route intraperitoneal
L929 [5] = test: Effect on TNF-mediated cytotoxicity against mouse L929 cells at 10 ug/mL after 18 hrs by crystal-violet staining assay; assay type: functional
Mus musculus [6] = test: Effect on LPS-induced nitric oxide production in C3H-FeJ peritonitis mouse peritoneal macrophages at 4 mg/kg, ip after 7 days; assay type: functional; settings: route intraperitoneal
RAW [7] = test: Inhibition of LPS-induced nitric oxide production in mouse RAW 264.7 cells assessed as nitrite formation; assay type: functional, cell-based
HT-29 [8] = test: Inhibition of LPS-stimulated […] release in human HT29 cells after 6 hrs by ELISA; assay type: functional, cell-based
Mus musculus [9] = test: Effect on TNF-mediated cytotoxicity against C3H-FeJ mouse […] cells at 4 mg/kg, ip after 3 days; assay type: functional; settings: route intraperitoneal
Mus musculus [10] = test: Antiinflammatory activity against TNBS-induced colitis in BALB/c IBD mouse model at 25 mg/kg, ip; assay type: functional, organism-based; design: dose 25 mg/kg
L929 [11] = test: Inhibition of LPS-induced TNFalpha production in mouse L929 cells after 4 hrs by ELISA; assay type: functional, cell-based; settings: L929, 4 h
Mus musculus [12] = test: Antiinflammatory activity against carrageenan-induced hind paw edema in CD1 foot-pad mouse model assessed as reduction in paw swelling at 30 mg/kg, ip after 6 hrs; assay type: functional, organism-based; design: dose 30 mg/kg
RAW [13] = test: Inhibition of LPS-induced iNOS mRNA level in mouse RAW 264.7 cells by Northern blot analysis; assay type: functional, cell-based
Mus musculus [14] = test: Effect on LPS-induced nitric oxide production in C3H-FeJ peritonitis mouse peritoneal macrophages at 2 mg/kg, ip after 3 days; assay type: functional; settings: route intraperitoneal
Mus musculus [15] = test: Effect on TNF-mediated cytotoxicity against C3H-FeJ mouse L929 cells at 2 mg/kg, ip after 7 days; assay type: functional; settings: route intraperitoneal
L929 [16] = test: Effect on TNF-mediated cytotoxicity against mouse L929 cells at 100 ug/mL after 18 hrs by crystal-violet staining assay; assay type: functional
[17] = biological target: T1, Tyrosine-protein kinase JAK3 (Mus musculus) (UniProt Q62137); test: Reduction of LPS-induced JAK3 phosphorylation in mouse RAW 264.7 cells at 100 ug/mL by Western blot analysis; assay type: cell-based
T1 sequence (whole entry): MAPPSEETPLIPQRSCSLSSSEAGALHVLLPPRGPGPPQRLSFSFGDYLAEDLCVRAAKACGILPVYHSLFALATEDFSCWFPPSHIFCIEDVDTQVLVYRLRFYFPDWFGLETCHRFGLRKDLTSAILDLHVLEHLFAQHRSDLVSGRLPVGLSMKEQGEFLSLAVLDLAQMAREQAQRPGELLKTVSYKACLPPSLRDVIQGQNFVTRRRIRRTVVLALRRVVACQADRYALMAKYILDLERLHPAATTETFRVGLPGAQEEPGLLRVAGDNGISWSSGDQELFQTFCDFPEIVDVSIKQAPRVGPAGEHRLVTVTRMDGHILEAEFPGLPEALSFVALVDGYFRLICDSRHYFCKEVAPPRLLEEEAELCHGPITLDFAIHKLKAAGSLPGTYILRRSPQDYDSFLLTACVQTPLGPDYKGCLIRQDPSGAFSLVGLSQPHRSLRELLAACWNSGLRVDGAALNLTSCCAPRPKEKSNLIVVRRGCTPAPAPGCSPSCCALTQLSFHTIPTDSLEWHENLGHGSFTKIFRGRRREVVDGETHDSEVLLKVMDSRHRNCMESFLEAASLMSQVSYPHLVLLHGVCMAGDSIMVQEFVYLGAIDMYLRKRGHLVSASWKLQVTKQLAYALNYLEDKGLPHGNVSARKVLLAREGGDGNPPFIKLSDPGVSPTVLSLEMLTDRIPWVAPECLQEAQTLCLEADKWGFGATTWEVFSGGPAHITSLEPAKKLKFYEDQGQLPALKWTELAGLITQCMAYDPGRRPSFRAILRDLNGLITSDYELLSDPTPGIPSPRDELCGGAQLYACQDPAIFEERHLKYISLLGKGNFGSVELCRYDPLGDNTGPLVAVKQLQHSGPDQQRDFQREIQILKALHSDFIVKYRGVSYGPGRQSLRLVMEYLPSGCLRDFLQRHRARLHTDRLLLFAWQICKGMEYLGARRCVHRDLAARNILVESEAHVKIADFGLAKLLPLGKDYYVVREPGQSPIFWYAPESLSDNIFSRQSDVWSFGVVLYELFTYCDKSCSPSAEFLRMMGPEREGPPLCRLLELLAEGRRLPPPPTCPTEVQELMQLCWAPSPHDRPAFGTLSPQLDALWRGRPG

RAW [18] = test: Inhibition of LPS-induced TNFalpha production in mouse RAW 264.7 cells after 4 hrs by ELISA; assay type: functional, cell-based
Mus musculus [19] = test: Antiinflammatory activity against carrageenan-induced hind paw edema in ICR foot-pad mouse model assessed as reduction in paw swelling at 30 mg/kg, ip after 6 hrs; assay type: functional, organism-based; design: dose 30 mg/kg
Mus musculus [20] = test: Effect on TNF-mediated cytotoxicity against C3H-FeJ mouse L929 cells at 2 mg/kg, ip after 3 days; assay type: functional; settings: route intraperitoneal
Mus musculus [21] = test: Effect on LPS-induced nitric oxide production in C3H-FeJ peritonitis mouse peritoneal macrophages at 2 mg/kg, ip after 7 days; assay type: functional; settings: route intraperitoneal
RAW [22] = test: Inhibition of LPS-induced TNFalpha mRNA level in mouse RAW 264.7 cells by Northern blot analysis; assay type: functional, cell-based
Mus musculus [23] = test: Antiinflammatory activity in paraffin oil challenged C3H-FeJ peritonitis mouse model assessed as peritoneal levage macrophage count per 10^5/mL at 4 mg/kg, ip after 3 days; assay type: functional; settings: route intraperitoneal
Mus musculus [24] = test: Antiinflammatory activity in paraffin oil challenged ip dosed C3H-FeJ peritonitis mouse model after 7 days; assay type: functional; settings: 168 h
L929 [25] = test: Inhibition of LPS-induced nitric oxide production in mouse L929 cells assessed as nitrite formation; assay type: functional, cell-based
Mus musculus [26] = test: Antiinflammatory activity in paraffin oil challenged C3H-FeJ peritonitis mouse model assessed as peritoneal levage macrophage count per 10^5/mL at 4 mg/kg, ip after 7 days; assay type: functional; settings: route intraperitoneal
L929 [27] = test: Effect on TNF-mediated cytotoxicity against mouse L929 cells at 1 ug/mL after 18 hrs by crystal-violet staining assay; assay type: functional
Mus musculus [28] = species on record: Mus musculus; test: Antiinflammatory activity against LPS-galactosamine challenged C57BL/6J SIRS mouse model at 500 ug assessed as mortality within 24 hrs; assay type: functional, organism-based
Mus musculus [29] = test: Effect on LPS-induced nitric oxide production in C3H-FeJ peritonitis mouse peritoneal macrophages at 4 mg/kg, ip after 3 days; assay type: functional; settings: route intraperitoneal

For `COc1cc2ncnc(Nc3ccc(O)cc3)c2cc1OC` [WHI-P131], the Activity (HT-29 [1]) was “Active”, the Activity (Mus musculus [2]) was 3.1 and the Activity (Mus musculus [3]) was 34.6%. The Activity (Mus musculus [4]) was 4.3, the Activity (L929 [5]) was 25.7% and the Activity (Mus musculus [6]) was 4 µM. For the same molecule, the IC50 (RAW [7]) was 1.4 µM, the Activity (HT-29 [8]) was “Active” and the Activity (Mus musculus [9]) was 18.8%. For the same molecule, the Activity (Mus musculus [10]) was “Active”, the IC50 (L929 [11]) was 14.5 µM and the Activity (Mus musculus [12]) was “Active”. The Activity (RAW [13]) was “Active”, the Activity (Mus musculus [14]) was 40 µM and the Activity (Mus musculus [15]) was 45.3%. The Activity (L929 [16]) was 0%, the Activity [17] was “Active” and the IC50 (RAW [18]) was 124 µM. For the same molecule, the Activity (Mus musculus [19]) was “Active”, the Activity (Mus musculus [20]) was 31.8% and the Activity (Mus musculus [21]) was 3 µM. The Activity (RAW [22]) was “Dose-dependent effect”, the Activity (Mus musculus [23]) was 2.3 and the ED50 (Mus musculus [24]) was 2.8 mg/kg. It also gave an IC50 (L929 [25]) of 1.7 µM, an Activity (Mus musculus [26]) of 2.5 and an Activity (L929 [27]) of 45.9%. For the same molecule, the Activity (Mus musculus [28]) was “Non-toxic” and the Activity (Mus musculus [29]) was 13 µM.

From ChEMBL document CHEMBL1143984, “Anti-inflammatory activity profile of JANEX-1 in preclinical animal models” (Bioorg Med Chem, 2008)
